Laboratory results taken from patent US20120184548A1, “CARBOXYLIC ACID ARYL AMIDES” (priority 2011, published 2012).

Key:
Human DYRK1B = target: T1, Human DYRK1B (Homo sapiens, UniProt Q9Y463); experiment: DYRK1B Kinase TR-FRET (IMAP-Tb) Assay; assay type: biochemical; conditions: for IC50: TR-FRET, ATP 70 μM, 37° C. for 60 minutes, averages of multiple runs, read-out: Enzyme IC50 DYRK1B; for inhibition at 10 µM: 10 μM test compound, reported where IC50 was not determined, read-out: Enzyme DYRK1B % inhibition at 10 μM test compound concentration
T1 construct: purchased Invitrogen PR8350B (former PV4649)
Text: The kinase TR-FRET (IMAP-Tb) assay uses a fluorescence labeled substrate peptide in the kinase reaction. Upon phosphorylation by the kinase, phosphopeptide is produced, which will be detected by the binding solution provided in IMAP TR-FRET binding kit. After the completion of the kinase reaction, the reaction will be stopped by adding the binding solution containing terbium tracer. This tracer is immobilized on the surface of the IMAP beads, which also contain metal ions on the beads that bind to the phospho-groups of the products. Thus the phosphorylated product of the reaction can enter into close proximity to the tracer, producing resonance energy transfer. Due to the long lifetime of terbium (Tb) fluorescence the detection can be run in time resolved mode, which virtually eliminates fluorescence interference from assay components or compounds. […] IC50 is the amount of test compound that inhibits 50% of the activity of DYRK1B in this assay. […] 1. Human DYRK1B: from Invitrogen. Part # PR8350B (former PV4649) 2. Substrate Peptide: RRRFRPASPLRGPPK 3. IMAP TR-FRET IPP Explorer Kit: from Molecular Devices. Part # R8157 4. Kinase Assay Buffer (KAB): 10 mM HEPES pH 7.0, 50 mM NaCl, 5 mM MgCl2, 1 mM DTT, 1 mM NaVO4, 200 μg/mL BSA (0.02%) 5. Assay Plate: Remp polypropylene clear 384-well microplate. Cat#23490-102 6. Detection Plate: Costa black 384-well microplate. Cat #3710 Assay Procedure: This assay was performed as follows: 1. Transfer 1.5 μL of 20× compound solution to each well of an assay plate. 2. Add to each well 22.5 μL of KAB Buffer. 3. Add to each well 3 μL of the solution of DYRK1B and ATP. […] Add to each well 3 μL of the substrate peptide. […] Incubate the assay plates at 37° C. for 60 minutes. 6. Add 18 μL of Detection Solution (1:800 diluted Progress bead stock, 1:400 diluted Tb stock, 80% Buffer A, and 20% Buffer B) into each well of detection plates. 7. Transfer 6 μL of assay solution from the assay plate to the detection plate. 8. Shake detection plates for 30 minutes. 9. Read plates in Envision with wavelength set at excitation 340 nm for Tb, emission 490 nm, and […]. 10. Calculation: TR-FRET Signal=(Reading at […])×2000000

Human DYRK1A = target: T2, Human DYRK1A (Homo sapiens, UniProt Q13627); experiment: DYRK1A Kinase TR-FRET (IMAP-Tb) Assay; assay type: biochemical; conditions: for IC50: TR-FRET, ATP 70 μM, 37° C. for 60 minutes, averages of multiple runs, read-out: Enzyme IC50 DYRK1A; for inhibition at 10 µM: 10 μM test compound, reported where IC50 was not determined, read-out: Enzyme DYRK1A % inhibition at 10 μM test compound concentration
T2 construct: purchased Invitrogen PV3997
Text: The kinase TR-FRET (IMAP-Tb) assay uses a fluorescence labeled substrate peptide in the kinase reaction. Upon phosphorylation by the kinase, phosphopeptide is produced, which will be detected by the binding solution provided in IMAP TR-FRET binding kit. After the completion of the kinase reaction, the reaction will be stopped by adding the binding solution containing terbium tracer. This tracer is immobilized on the surface of the IMAP beads, which also contain metal ions on the beads that bind to the phospho-groups of the products. Thus the phosphorylated product of the reaction can enter into close proximity to the tracer, producing resonance energy transfer. Due to the long lifetime of terbium (Tb) fluorescence the detection can be run in time resolved mode, which virtually eliminates fluorescence interference from assay components or compounds.
The TR-FRET signal measurement from this assay, given as an IC50 measurement, is a measure of a test compound's ability to interfere with the phosphorylation of the peptide substrate, that is it inhibits the phosphorylation of the substrate peptide by DYRK1A, and is thus a measure of the test compound's ability to inhibit the activity of DYRK1A.
1. Human DYRK1A: from Invitrogen. Part # PV3997
2. Substrate Peptide: […]
3. IMAP TR-FRET IPP Explorer Kit: from Molecular Devices. Part # R8157 4. Kinase Assay Buffer (KAB): 10 mM HEPES pH 7.0, 50 mM NaCl, 5 mM MgCl2, 1 mM DTT, 1 mM NaVO4, 200 μg/mL BSA (0.02%) 5. Assay Plate: Remp polypropylene clear 384-well microplate. […] Detection Plate: Costa black 384-well microplate. […] Transfer 1.5 μL of 20× compound solution to each well of an assay plate. 2. Add to each well 22.5 μL of KAB Buffer. 3. Add to each well 3 μL of the solution of DYRK1A and ATP. […] Add to each well 3 μL of the substrate peptide. The assay concentration is 1.0 μM 5. Incubate the assay plates at 37° C. for 60 minutes. 6. Add 18 μL of Detection Solution (1:800 diluted Progress bead stock, 1:400 diluted Tb stock, 80% Buffer A, and 20% Buffer B) into each well of detection plates. 7. Transfer 6 μL of assay solution from the assay plate to the detection plate. 8. Shake detection plates for 30 minutes. 9. Read plates in Envision with wavelength set at excitation 340 nm for Tb, emission 490 nm, and […].

T1 sequence (Q9Y463 whole entry): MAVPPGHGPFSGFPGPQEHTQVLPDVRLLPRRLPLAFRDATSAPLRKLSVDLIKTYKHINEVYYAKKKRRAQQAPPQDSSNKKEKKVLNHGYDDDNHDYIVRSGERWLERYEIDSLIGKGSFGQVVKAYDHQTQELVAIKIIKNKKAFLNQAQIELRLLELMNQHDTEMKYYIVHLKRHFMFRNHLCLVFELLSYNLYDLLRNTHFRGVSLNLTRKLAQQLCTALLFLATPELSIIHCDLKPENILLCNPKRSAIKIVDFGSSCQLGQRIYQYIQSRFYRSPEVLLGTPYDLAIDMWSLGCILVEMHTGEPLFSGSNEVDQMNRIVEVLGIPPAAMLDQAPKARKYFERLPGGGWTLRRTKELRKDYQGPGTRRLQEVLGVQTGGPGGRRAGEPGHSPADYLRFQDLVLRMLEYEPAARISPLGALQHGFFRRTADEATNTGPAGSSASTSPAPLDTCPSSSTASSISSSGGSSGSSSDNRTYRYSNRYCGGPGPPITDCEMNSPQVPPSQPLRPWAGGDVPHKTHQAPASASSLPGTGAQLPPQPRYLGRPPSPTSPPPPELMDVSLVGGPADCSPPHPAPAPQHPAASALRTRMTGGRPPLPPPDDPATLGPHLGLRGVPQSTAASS

With `COCCOc1cc2cc(C(=O)Nc3cc(C(=O)N[C@@H](CCN)c4ccccc4)ccc3C)c(=O)[nH]c2cc1OC` (single isomer, unassigned) [Example 59] the IC50 (Human DYRK1B) was 4.91 µM and the IC50 (Human DYRK1A) was 2.38 µM.

For `COc1cc2cc(C(=O)Nc3cc(C(=O)NC(CCN)c4ccccc4)ccc3C)c(=O)[nH]c2cc1OC` (stereo in doubt) [Example 48, 6,7-Dimethoxy-2-oxo-1,2-dihydro-quinoline-3-carboxylic acid [5-((S)-3-amino-1-phenyl-propylcarbamoyl)-2-methyl-phenyl]-amide], the inhibition at 10 µM (Human DYRK1B) was 39% and the IC50 (Human DYRK1A) was 1.02 µM.

With `COc1cc2cc(C(=O)Nc3cc(C(=O)N(C)C)ccc3Cl)c(=O)[nH]c2cc1OC` [Example 20, 6,7-Dimethoxy-2-oxo-1,2-dihydro-quinoline-3-carboxylic acid (2-chloro-5-dimethylcarbamoyl-phenyl)-amide] the IC50 (Human DYRK1B) was 5.09 µM and the IC50 (Human DYRK1A) was 1.13 µM.

`COc1cc2cc(C(=O)Nc3ccncc3C)c(=O)[nH]c2cc1OC` [Example 21, 6,7-Dimethoxy-2-oxo-1,2-dihydro-quinoline-3-carboxylic acid (3-methyl-pyridin-4-yl)-amide] gave an IC50 (Human DYRK1B) of 5.48 µM and an IC50 (Human DYRK1A) of over 10 µM.

Compound `COc1cc2cc(C(=O)Nc3cc(-c4nnn[nH]4)ccc3C)c(=O)[nH]c2cc1OC` [Example 22, 6,7-Dimethoxy-2-oxo-1,2-dihydro-quinoline-3-carboxylic acid [2-methyl-5-(1H-tetrazol-5-yl)-phenyl]-amide] has an IC50 (Human DYRK1B) of 0.719 µM and an IC50 (Human DYRK1A) of over 10 µM.

`COCCOc1cc2cc(C(=O)Nc3cc(-c4nnn[nH]4)ccc3C)c(=O)[nH]c2cc1OC` [Example 24, 7-Methoxy-6-(2-methoxy-ethoxy)-2-oxo-1,2-dihydro-quinoline-3-carboxylic acid [2-methyl-5-(1H-tetrazol-5-yl)-phenyl]-amide] gave an IC50 (Human DYRK1B) of 2.67 µM and an IC50 (Human DYRK1A) of 1.76 µM.

`COCCOc1cc2cc(C(=O)Nc3cc(C(=O)OC)ccc3C)c(=O)[nH]c2cc1OCCOC` [Example 25, 3-{[6,7-Bis-(2-methoxy-ethoxy)-2-oxo-1,2-dihydro-quinoline-3-carbonyl]-amino}-4-methyl-benzoic acid methyl ester] showed an IC50 (Human DYRK1B) of 0.911 µM and an IC50 (Human DYRK1A) of 0.604 µM.

In the case of `COCCOc1cc2[nH]c(=O)c(C(=O)Nc3cc(C(=O)OC)ccc3C)cc2cc1OC` [Example 26, 3-{[6-Methoxy-7-(2-methoxy-ethoxy)-2-oxo-1,2-dihydro-quinoline-3-carbonyl]-amino}-4-methyl-benzoic acid methyl ester], the IC50 (Human DYRK1B) is reported as 6.42 µM and the IC50 (Human DYRK1A) is reported as 5.14 µM.

For `COCCOc1cc2[nH]c(=O)c(C(=O)Nc3cc(-c4nnn[nH]4)ccc3C)cc2cc1OC` [Example 27, 6-Methoxy-7-(2-methoxy-ethoxy)-2-oxo-1,2-dihydro-quinoline-3-carboxylic acid [2-methyl-5-(1H-tetrazol-5-yl)-phenyl]-amide], the IC50 (Human DYRK1B) was 6.59 µM and the inhibition at 10 µM (Human DYRK1A) was 41%.

`COCCOc1cc2cc(C(=O)Nc3cc(-c4nnn[nH]4)ccc3C)c(=O)[nH]c2cc1OCCOC` [Example 28, 6,7-Bis-(2-methoxy-ethoxy)-2-oxo-1,2-dihydro-quinoline-3-carboxylic acid [2-methyl-5-(1H-tetrazol-5-yl)-phenyl]-amide] showed an IC50 (Human DYRK1B) of 5.05 µM and an inhibition at 10 µM (Human DYRK1A) of 49%.

In the case of `COc1cc2cc(C(=O)Nc3cc(C(=O)NCCCN4CCOCC4)ccc3C)c(=O)[nH]c2cc1OC` [Example 32, 6,7-Dimethoxy-2-oxo-1,2-dihydro-quinoline-3-carboxylic acid [2-methyl-5-(3-morpholin-4-yl-propylcarbamoyl)-phenyl]-amide], the IC50 (Human DYRK1B) is reported as over 10 µM and the IC50 (Human DYRK1A) is reported as 3.62 µM.

With `COc1cc2cc(C(=O)Nc3cc(C(=O)NC(CO)C(C)C)ccc3C)c(=O)[nH]c2cc1OC` (centres unmarked) [Example 33, 6,7-Dimethoxy-2-oxo-1,2-dihydro-quinoline-3-carboxylic acid [5-(1-hydroxymethyl-2-methyl-propylcarbamoyl)-2-methyl-phenyl]-amide] the inhibition at 10 µM (Human DYRK1B) was 36% and the inhibition at 10 µM (Human DYRK1A) was 36%.

In the case of `COc1cc2cc(C(=O)Nc3ccncc3Cl)c(=O)[nH]c2cc1OC` [Example 36, 6,7-Dimethoxy-2-oxo-1,2-dihydro-quinoline-3-carboxylic acid (3-chloro-pyridin-4-yl)-amide], the inhibition at 10 µM (Human DYRK1B) is reported as 28% and the IC50 (Human DYRK1A) is reported as 0.239 µM.

Compound `COc1cc2cc(C(=O)Nc3cc(C(=O)NCc4cccc(Cl)c4)ccc3C)c(=O)[nH]c2cc1OC` [Example 40, 6,7-Dimethoxy-2-oxo-1,2-dihydro-quinoline-3-carboxylic acid [5-(3-chloro-benzylcarbamoyl)-2-methyl-phenyl]-amide] has an inhibition at 10 µM (Human DYRK1B) of 34% and an IC50 (Human DYRK1A) of 0.182 µM.

`COc1cc2cc(C(=O)Nc3cc(C(=O)NCC4CCCCC4)ccc3C)c(=O)[nH]c2cc1OC` [Example 41, 6,7-Dimethoxy-2-oxo-1,2-dihydro-quinoline-3-carboxylic acid [5-(cyclohexylmethyl-carbamoyl)-2-methyl-phenyl]-amide] gave an IC50 (Human DYRK1B) of 2.59 µM and an IC50 (Human DYRK1A) of 4.59 µM.

In the case of `COc1cc2cc(C(=O)Nc3cc(-c4ncco4)ccc3C)c(=O)[nH]c2cc1OC` [Example 51, 6,7-Dimethoxy-2-oxo-1,2-dihydro-quinoline-3-carboxylic acid (2-methyl-5-oxazol-2-yl-phenyl)-amide], the inhibition at 10 µM (Human DYRK1B) is reported as 42% and the IC50 (Human DYRK1A) is reported as 0.592 µM.

`COc1cc2cc(C(=O)Nc3cc(C(=O)N[C@@H](CO)c4ccccc4)ccc3C)c(=O)[nH]c2cc1OC` [Example 56, (R)-N-(5-(2-Hydroxy-1-phenylethylcarbamoyl)-2-methylphenyl)-6,7-dimethoxy-2-oxo-1,2-dihydroquinoline-3-carboxamide] was tested, and the IC50 (Human DYRK1B) was over 10 µM and the inhibition at 10 µM (Human DYRK1A) was 31%.

With `COc1cc2cc(C(=O)Nc3cc(C(=O)N[C@H](CO)CC(C)C)ccc3C)c(=O)[nH]c2cc1OC` [Example 65, (S)-N-(5-(1-Hydroxy-4-methylpentan-2-ylcarbamoyl)-2-methylphenyl)-6,7-dimethoxy-2-oxo-1,2-dihydroquinoline-3-carboxamide] the inhibition at 10 µM (Human DYRK1B) was 26% and the IC50 (Human DYRK1A) was 4.31 µM.

`COc1cc2cc(C(=O)Nc3cc(C(=O)N[C@@H](CO)CC(C)C)ccc3C)c(=O)[nH]c2cc1OC` [Example 66, (R)-N-(5-(1-Hydroxy-4-methylpentan-2-ylcarbamoyl)-2-methylphenyl)-6,7-dimethoxy-2-oxo-1,2-dihydroquinoline-3-carboxamide] gave an inhibition at 10 µM (Human DYRK1B) of 13% and an IC50 (Human DYRK1A) of over 10 µM.
